Source: US20110028503A1, “COMPOSITIONS AND METHODS FOR INHIBITION OF THE JAK PATHWAY” (RIGEL PHARMACEUTICALS, INC., priority 2009, published 2011)
pIC50: −log10 of the molar value.

Tests used:
Assay type in all cases: cell-based
[1] = test system: human Ramos B cells stimulated with human IL-4 (JAK1 and JAK3 kinases, CD23 upregulation); assay: Ramos B-cell line stimulated with IL-4 (CD23 upregulation, FACS); conditions: IL-4 50 units/mL, 20-24 hours, anti-CD23-PE FACS, read-out: Example 3 IC50 (Ramos B-cell line stimulated with IL-4, CD23)
Protocol: One means of assaying for JAK inhibition is detection of the effect of compounds I and II on the upregulation of downstream gene products. In the Ramos/IL4 assay, B-cells are stimulated with the cytokine Interleukin-4 (IL-4) leading to the activation of the JAK/Stat pathway through phosphorylation of the JAK family kinases, JAK1 and JAK3, which in turn phosphorylate and activate the transcription factor Stat-6. […] Twenty to 24 hours post stimulation, cells are stained for upregulation of CD23 and analyzed using flow cytometry (FACS). […] An exemplary assay of this type is described in greater detail below. B-cells stimulated with cytokine Interleukin-4 (IL-4) activate the JAK/Stat pathway through phosphorylation of the JAK family kinases, JAK-1 and JAK-3, which in turn phosphorylate and activate the transcription factor Stat-6. […] To study the effect of inhibitors on the JAK family kinases, human Ramos B cells are stimulated with human IL-4. The Ramos B-cell line was acquired from [NT] No. CRL-1596). The cells were cultured in RPMI 1640 (Cellgro, MediaTech, Inc., Herndon, Va., Cat No. 10-040-CM) with 10% fetal bovine serum (FBS), heat inactivated (JRH Biosciences, Inc, Lenexa, Kans., Cat No. 12106-500M) according to ATCC propagation protocol. […] Cells were then spun down and stained with anti-CD23-PE(BD Pharmingen, San Diego, Calif., Cat No. 555711) and analyzed by FACS. […]

[2] = test system: primary human T-cells (IL-2 stimulated proliferation; JAK1 and JAK3); assay: Primary human T-cell proliferation assay stimulated with IL-2; conditions: IL-2, 72 hours, CellTiter-Glo ATP readout, read-out: Example 4 IC50 (primary human T-cell proliferation stimulated with IL-2)
Description: In this assay, primary human T-cells derived from peripheral blood and pre-activated through stimulation of the T-cell receptor and CD28, proliferate in culture in response to the cytokine Interleukin-2 (IL-2). This proliferative response is dependent on the activation of JAK1 and JAK3 tyrosine kinases, which phosphorylate and activate the transcription factor Stat-5. […] A reduction in cell proliferation compared to control conditions is indicative of inhibition of the JAK kinase pathway. An exemplary assay of this type is described in greater detail below.
Primary human T-cells derived from peripheral blood and pre-activated through stimulation of the T-cell receptor and CD28, proliferate in vitro in response to the cytokine Interleukin-2 (IL-2). This proliferative response is dependent on the activation of JAK-1 and JAK-3 tyrosine kinases, which phosphorylate and activate the transcription factor Stat-5.
Human primary T cells were prepared as follows. […] The lymphocytes at the serum: ficoll interface were recovered and washed twice with 5 volumes of PBS. […]
Proliferation was measured using CellTiter-Glo® Luminescent Cell Viability Assay (Promega), which determines the number of viable cells in culture based on quantitation of the ATP present, as an indicator of metabolically active cells. […]

[3] = test system: U937 human monocytic cells stimulated with IFNγ (ICAM-1 up-regulation, JAK/Stat pathway); assay: U937 IFNγ ICAM1 FACS assay; conditions: U-937, IFNγ 10 ng/mL, 18-24 hours, ICAM-1 FACS, read-out: Example 6 IC50 (U937 IFNγ ICAM1 FACS assay)
Protocol: U937 human monocytic cells up-regulate ICAM-1 (CD54) surface expression in response to a variety of different stimuli. Therefore, using ICAM-1 expression as readout, compound effects on different signaling pathways can be assessed in the same cell type. IFNγ up-regulates ICAM-1 through activation of the JAK/Stat pathway. In this example, the up-regulation of ICAM-1 by IFNγ was assessed.
U937 cells were grown in 10% RPMI. The cells were then plated at a concentration of 100,000 cells per 160 μL in 96 well flat bottom plates. […] Then 4 μL of test compound was transferred to 76 μL of 10% RPMI resulting in a 10× solution (100 μM test compound, 5% DMSO). For control wells, 4 μL of DMSO was diluted into 76 μL 10% RPMI.
The assay was performed in duplicate with 8 points (8 3-fold dilution concentrations from […]) and with 4 wells of DMSO only (control wells) under stimulated conditions and 4 wells of DMSO only under unstimulated conditions.
The diluted compound plate was mixed 2× using a multimek (Beckman Coulter of Brea, Calif.) and then 20 μL of the diluted compounds was transferred to the 96 well plate containing 160 μL of cells, which were then mixed again twice at low speeds. The cells and compounds were then pre-incubated for 30 minutes at 37° C. with 5% CO2. […]
Both % live cells and ICAM-1 expression was analyzed. […]

pIC50 [1]: 7.25 | pIC50 [3]: 6.25
SMILES: C#CCOc1ccc(Nc2nc(Nc3ccc(C)c(S(N)(=O)=O)c3)ncc2F)cc1 [Compound I, N2-(3-Aminosulfonyl-4-methylphenyl)-5-fluoro-N4-[4-(prop-2-ynyloxy)phenyl]-2,4-pyrimidinediamine]
pIC50 [2]: 6.74
